Active and inactive are the calls of the source. No cut-off for these calls is given here.
Assays:
SK-MEL-5 [1] = test: Growth inhibition of human SK-MEL-5 cells at 10 uM measured after 48 hrs by sulforhodamine B assay; assay type: functional, cell-based
MDA-MB-435 [2] = test: Growth inhibition of human MDA-MB-435 cells measured after 48 hrs by sulforhodamine B assay; assay type: functional; settings: for CC50: read-out: LC50 (the source's name)
COLO 205 [3] = test: Growth inhibition of human COLO 205 cells at 10 uM measured after 48 hrs by sulforhodamine B assay; assay type: functional, cell-based
NCI-H522 [4] = test: Growth inhibition of human NCI-H522 cells measured after 48 hrs by sulforhodamine B assay; assay type: functional; settings: for CC50: read-out: LC50 (the source's name)
COLO 205 [5] = test: Growth inhibition of human COLO 205 cells measured after 48 hrs by sulforhodamine B assay; assay type: functional; settings: for CC50: read-out: LC50 (the source's name)
NCI-H522 [6] = test: Growth inhibition of human NCI-H522 cells at 10 uM measured after 48 hrs by sulforhodamine B assay; assay type: functional, cell-based
MDA-MB-435 [7] = test: Growth inhibition of human MDA-MB-435 cells at 10 uM measured after 48 hrs by sulforhodamine B assay; assay type: functional, cell-based
SK-MEL-5 [8] = test: Growth inhibition of human SK-MEL-5 cells measured after 48 hrs by sulforhodamine B assay; assay type: functional; settings: for CC50: read-out: LC50 (the source's name)
Sus scrofa [9] = species on record: Sus scrofa; test: Inhibition of porcine brain tubulin polymerization assessed as microtubule destabilization by measuring relative fluorescence unit at 10 uM measured at 60 secs interval for 60 mins in presence of GTP by fluorescence assay
MDA-MB-231 [10] = test: Induction of apoptosis in human MDA-MB-231 cells assessed as late apoptotic cells at 10 uM measured after 24 hrs by Annexin V/7-AAD double staining based muse cell analyzer method (reference value: 1.44%); assay type: functional
MDA-MB-231 [11] = test: Cytotoxicity against human MDA-MB-231 cells assessed as reduction in cell viability measured after 48 hrs by MTT assay; assay type: functional, cell-based; settings: MDA-MB-231, 48 h
MDA-MB-231 [12] = test: Cell cycle arrest in human MDA-MB-231 cells assessed as accumulation of cells at G2/M phase at 10 uM measured after 24 hrs by Muse cell analyzer based assay (reference value: 27.3%); assay type: functional
MDA-MB-231 [13] = test: Induction of apoptosis in human MDA-MB-231 cells assessed as early apoptotic cells at 10 uM measured after 24 hrs by Annexin V/7-AAD double staining based muse cell analyzer method (reference value: 1.64%); assay type: functional
MDA-MB-231 [14] = test: Induction of morphological changes in human MDA-MB-231 cells assessed as loss of cell polarity at 10 uM measured after 24 hrs; assay type: functional, cell-based
[15] = Cytotoxicity against human HaCaT cells assessed as reduction in cell viability measured after 48 hrs by MTT assay; assay type: toxicity, cell-based
MDA-MB-231 [16] = test: Cell cycle arrest in human MDA-MB-231 cells assessed as accumulation of cells at S phase at 10 uM measured after 24 hrs by Muse cell analyzer based assay (reference value: 12.9%); assay type: functional
MDA-MB-231 [17] = test: Cell cycle arrest in human MDA-MB-231 cells assessed as accumulation of cells at G0/G1 phase at 10 uM measured after 24 hrs by Muse cell analyzer based assay (reference value: 59.7%); assay type: functional
MDA-MB-231 [18] = test: Induction of apoptosis in human MDA-MB-231 cells assessed as viable cells at 10 uM measured after 24 hrs by Annexin V/7-AAD double staining based muse cell analyzer method (reference value: 96.21%); assay type: functional; settings: read-out: Activity
MDA-MB-231 [19] = test: Induction of apoptosis in human MDA-MB-231 cells assessed as necrotic cells at 10 uM measured after 24 hrs by Annexin V/7-AAD double staining based muse cell analyzer method (reference value: 0.72%); assay type: functional
K562 [20] = test: Growth inhibition of human K562 cells measured after 48 hrs by sulforhodamine B assay; assay type: functional; settings: for CC50: read-out: LC50 (the source's name)
MCF7 [21] = test: Growth inhibition of human MCF7 cells measured after 48 hrs by sulforhodamine B assay; assay type: functional
OVCAR-8 [22] = test: Growth inhibition of human OVCAR-8 cells at 10 uM measured after 48 hrs by sulforhodamine B assay; assay type: functional, cell-based
UACC-62 [23] = test: Growth inhibition of human UACC-62 cells at 10 uM measured after 48 hrs by sulforhodamine B assay; assay type: functional, cell-based
K562 [24] = test: Growth inhibition of human K562 cells at 10 uM measured after 48 hrs by sulforhodamine B assay; assay type: functional, cell-based
UACC-62 [25] = test: Growth inhibition of human UACC-62 cells measured after 48 hrs by sulforhodamine B assay; assay type: functional; settings: for CC50: read-out: LC50 (the source's name)
OVCAR-8 [26] = test: Growth inhibition of human OVCAR-8 cells measured after 48 hrs by sulforhodamine B assay; assay type: functional; settings: for CC50: read-out: LC50 (the source's name)
MCF7 [27] = test: Growth inhibition of human MCF7 cells at 10 uM measured after 48 hrs by sulforhodamine B assay; assay type: functional, cell-based
Sus scrofa [28] = species on record: Sus scrofa; test: Inhibition of porcine brain tubulin polymerization assessed as microtubule destabilization at 10 uM measured at 60 secs interval for 60 mins in presence of GTP by fluorescence assay

O=C(N/N=C/c1cccs1)c1[nH]c2ccc(Br)cc2c1-c1ccccc1
growth inhibition (GI) (SK-MEL-5 [1]): Active
growth inhibition (GI) (MDA-MB-435 [2]): Active
CC50 (MDA-MB-435 [2]): > 10 µM
growth inhibition (GI) (COLO 205 [3]): Active
growth inhibition (GI) (NCI-H522 [4]): Active
CC50 (NCI-H522 [4]): > 10 µM
growth inhibition (GI) (COLO 205 [5]): Active
CC50 (COLO 205 [5]): > 10 µM
growth inhibition (GI) (NCI-H522 [6]): Active
growth inhibition (GI) (MDA-MB-435 [7]): Active
growth inhibition (GI) (SK-MEL-5 [8]): Active
CC50 (SK-MEL-5 [8]): > 10 µM

COc1ccsc1/C=N/NC(=O)c1[nH]c2ccc(Br)cc2c1-c1ccccc1
growth inhibition (GI) (SK-MEL-5 [1]): Active
RFU (Sus scrofa [9]): 20 a.u.
Activity (MDA-MB-231 [10]): 5.7%
GI50 (MDA-MB-435 [2]): 0.24 µM
CC50 (MDA-MB-435 [2]): > 100 µM
IC50 (MDA-MB-231 [11]): 4.13 µM
growth inhibition (GI) (COLO 205 [3]): Active
Activity (MDA-MB-231 [12]): 70%
GI50 (NCI-H522 [4]): 0.213 µM
CC50 (NCI-H522 [4]): 8.56 µM
Activity (MDA-MB-231 [13]): 3.55%
GI50 (COLO 205 [5]): 0.435 µM
CC50 (COLO 205 [5]): 5.92 µM
Activity (MDA-MB-231 [14]): Active
growth inhibition (GI) (NCI-H522 [6]): Active
IC50 at 48 h [15]: 0.54 µM
growth inhibition (GI) (MDA-MB-435 [7]): Active
Activity (MDA-MB-231 [16]): 10.2%
Activity (MDA-MB-231 [17]): 19.6%
GI50 (SK-MEL-5 [8]): 0.321 µM
CC50 (SK-MEL-5 [8]): > 100 µM
viability at 10 µM (MDA-MB-231 [18]): 85.8%
Activity (MDA-MB-231 [19]): 4.98%

O=C(N/N=C/c1ccsc1)c1[nH]c2ccc(Br)cc2c1-c1ccccc1
growth inhibition (GI) (SK-MEL-5 [1]): Active
GI50 (MDA-MB-435 [2]): 0.0789 µM
CC50 (MDA-MB-435 [2]): > 10 µM
growth inhibition (GI) (COLO 205 [3]): Active
GI50 (NCI-H522 [4]): > 0.1 µM
CC50 (NCI-H522 [4]): > 10 µM
GI50 (COLO 205 [5]): > 0.1 µM
CC50 (COLO 205 [5]): > 10 µM
growth inhibition (GI) (NCI-H522 [6]): Active
growth inhibition (GI) (MDA-MB-435 [7]): Active
GI50 (SK-MEL-5 [8]): > 0.1 µM
CC50 (SK-MEL-5 [8]): > 10 µM

O=C(N/N=C/c1ccc([N+](=O)[O-])o1)c1[nH]c2ccc(Br)cc2c1-c1ccccc1
growth inhibition (GI) (SK-MEL-5 [1]): Active
RFU (Sus scrofa [9]): 45 a.u.
GI50 (MDA-MB-435 [2]): 0.0808 µM
CC50 (MDA-MB-435 [2]): 0.734 µM
growth inhibition (GI) (COLO 205 [3]): Active
GI50 (K562 [20]): 0.054 µM
CC50 (K562 [20]): > 100 µM
GI50 (MCF7 [21]): 0.0443 µM
LC50 (MCF7 [21]): > 100 µM
GI50 (NCI-H522 [4]): 0.0374 µM
CC50 (NCI-H522 [4]): 5.39 µM
GI50 (COLO 205 [5]): 0.233 µM
CC50 (COLO 205 [5]): 1.79 µM
growth inhibition (GI) (OVCAR-8 [22]): Active
growth inhibition (GI) (UACC-62 [23]): Active
growth inhibition (GI) (K562 [24]): Active
GI50 (UACC-62 [25]): 0.0731 µM
CC50 (UACC-62 [25]): 5.29 µM
growth inhibition (GI) (NCI-H522 [6]): Active
GI50 (OVCAR-8 [26]): 0.184 µM
CC50 (OVCAR-8 [26]): 4.19 µM
growth inhibition (GI) (MDA-MB-435 [7]): Active
GI50 (SK-MEL-5 [8]): 0.213 µM
CC50 (SK-MEL-5 [8]): 2.62 µM
growth inhibition (GI) (MCF7 [27]): Active

COc1ccc(/C=N/NC(=O)c2[nH]c3ccc(Br)cc3c2-c2ccccc2)o1
growth inhibition (GI) (SK-MEL-5 [1]): Active
GI50 (MDA-MB-435 [2]): 0.0775 µM
CC50 (MDA-MB-435 [2]): 0.747 µM
growth inhibition (GI) (COLO 205 [3]): Active
GI50 (K562 [20]): 0.047 µM
CC50 (K562 [20]): > 100 µM
GI50 (MCF7 [21]): 0.0349 µM
LC50 (MCF7 [21]): > 100 µM
GI50 (NCI-H522 [4]): 0.0184 µM
CC50 (NCI-H522 [4]): > 100 µM
GI50 (COLO 205 [5]): 0.187 µM
CC50 (COLO 205 [5]): 0.659 µM
growth inhibition (GI) (OVCAR-8 [22]): Active
growth inhibition (GI) (UACC-62 [23]): Active
growth inhibition (GI) (K562 [24]): Active
GI50 (UACC-62 [25]): 0.0535 µM
CC50 (UACC-62 [25]): > 100 µM
growth inhibition (GI) (NCI-H522 [6]): Active
GI50 (OVCAR-8 [26]): 0.0845 µM
CC50 (OVCAR-8 [26]): > 100 µM
growth inhibition (GI) (MDA-MB-435 [7]): Active
GI50 (SK-MEL-5 [8]): 0.139 µM
CC50 (SK-MEL-5 [8]): > 100 µM
growth inhibition (GI) (MCF7 [27]): Active

COc1csc(/C=N/NC(=O)c2[nH]c3ccc(Br)cc3c2-c2ccccc2)c1
growth inhibition (GI) (SK-MEL-5 [1]): Active
Activity (MDA-MB-231 [10]): 20.25%
GI50 (MDA-MB-435 [2]): 0.0191 µM
CC50 (MDA-MB-435 [2]): 0.259 µM
IC50 (MDA-MB-231 [11]): 0.16 µM
growth inhibition (GI) (COLO 205 [3]): Active
Activity (MDA-MB-231 [12]): 74.5%
GI50 (NCI-H522 [4]): < 0.01 µM
CC50 (NCI-H522 [4]): > 100 µM
Activity (MDA-MB-231 [13]): 6.44%
GI50 (COLO 205 [5]): 0.0191 µM
CC50 (COLO 205 [5]): 0.0708 µM
Activity (MDA-MB-231 [14]): Active
growth inhibition (GI) (NCI-H522 [6]): Active
IC50 at 48 h [15]: 0.03 µM
growth inhibition (GI) (MDA-MB-435 [7]): Active
Activity (MDA-MB-231 [16]): 10%
Activity (MDA-MB-231 [17]): 15.6%
GI50 (SK-MEL-5 [8]): 0.0186 µM
CC50 (SK-MEL-5 [8]): 0.0749 µM
viability at 10 µM (MDA-MB-231 [18]): 66.7%
inhibition (Sus scrofa [28]): inactive
Activity (MDA-MB-231 [19]): 6.61%

O=C(N/N=C/c1ccc(B(O)O)s1)c1[nH]c2ccc(Br)cc2c1-c1ccccc1
growth inhibition (GI) (SK-MEL-5 [1]): Active
GI50 (MDA-MB-435 [2]): > 0.1 µM
growth inhibition (GI) (COLO 205 [3]): Active
GI50 (NCI-H522 [4]): > 0.1 µM
GI50 (COLO 205 [5]): > 0.1 µM
CC50 (COLO 205 [5]): 4.98 µM
growth inhibition (GI) (NCI-H522 [6]): Active
growth inhibition (GI) (MDA-MB-435 [7]): Active
GI50 (SK-MEL-5 [8]): > 0.1 µM

— ChEMBL document CHEMBL5576112, “Synthesis, in silico, in vitro evaluation of furanyl- and thiophenyl-3-phenyl-1H-indole-2-carbohydrazide derivatives as tubulin inhibitors and anticancer agents” (RSC Med Chem, 2024)
